Where a SMILES comes first, the peptide text is derived from it. [ ]: non-standard residue; d: D form. ξ: configuration not given here. Thr(3ξ) = CC(O)[C@H](N)C(=O)O; Aib = CC(C)(N)C(=O)O
Experiments:
Assay type in all cases: functional, cell-based
[1] = target: T1, Glucagon-like peptide 1 receptor (Homo sapiens, UniProt P43220); assay: Agonist activity at human GLP-1R expressed in HEK293 cells incubated for 30 mins and assessed as increase in cAMP accumulation measured by HTRF assay
[2] = target: T1, Glucagon-like peptide 1 receptor; assay: Agonist activity at human GLP-1R expressed in HEK293 cells incubated for 30 mins and assessed as increase in cAMP accumulation measured by HTRF assay relative to control; set-up: concentration or dose not given beside the values
Glucagon receptor = Glucagon receptor (Homo sapiens, UniProt P47871); assay: Agonist activity at human GCGR expressed in HEK293 cells incubated for 30 mins and assessed as increase in cAMP accumulation measured by HTRF assay
Chain of Glucagon receptor (P47871 whole entry): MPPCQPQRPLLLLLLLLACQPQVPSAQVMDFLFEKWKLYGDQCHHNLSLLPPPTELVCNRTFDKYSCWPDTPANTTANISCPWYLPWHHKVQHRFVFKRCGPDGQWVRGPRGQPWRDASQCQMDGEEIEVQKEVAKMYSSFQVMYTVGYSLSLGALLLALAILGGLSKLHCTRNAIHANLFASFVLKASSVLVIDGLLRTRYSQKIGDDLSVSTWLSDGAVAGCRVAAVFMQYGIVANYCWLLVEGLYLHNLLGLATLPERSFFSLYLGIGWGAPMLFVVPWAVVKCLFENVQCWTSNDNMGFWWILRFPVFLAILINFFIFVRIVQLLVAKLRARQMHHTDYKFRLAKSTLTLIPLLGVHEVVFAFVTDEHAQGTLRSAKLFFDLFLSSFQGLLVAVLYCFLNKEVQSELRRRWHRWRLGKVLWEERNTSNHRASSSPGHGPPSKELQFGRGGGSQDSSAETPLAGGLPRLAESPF

T1 sequence (P43220 whole entry): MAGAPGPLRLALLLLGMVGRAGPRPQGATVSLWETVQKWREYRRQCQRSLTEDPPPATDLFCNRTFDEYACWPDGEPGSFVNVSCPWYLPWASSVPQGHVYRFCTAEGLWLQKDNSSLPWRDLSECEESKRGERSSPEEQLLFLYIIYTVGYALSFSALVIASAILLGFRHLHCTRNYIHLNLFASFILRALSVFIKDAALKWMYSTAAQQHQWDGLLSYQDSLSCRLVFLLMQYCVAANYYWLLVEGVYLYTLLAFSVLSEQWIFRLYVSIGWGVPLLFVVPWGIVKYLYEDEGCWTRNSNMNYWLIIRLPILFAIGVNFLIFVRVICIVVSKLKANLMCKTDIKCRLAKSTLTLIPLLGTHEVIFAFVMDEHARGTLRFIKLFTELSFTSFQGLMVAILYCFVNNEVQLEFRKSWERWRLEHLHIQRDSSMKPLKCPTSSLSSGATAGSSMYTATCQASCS

| EC50 [1] [nM] | Activity [2] [%] | EC50 (Glucagon receptor) [nM] | Molecule | Activity ([2]; filed as agonist) [%] | EC50 ([1]; hek293) [nM] |
| --- | --- | --- | --- | --- | --- |
| 0.73 | 5.6 | 0.43 | CC[C@H](C)[C@H](NC(=O)[C@H](Cc1ccccc1)NC(=O)[C@H](CC(=O)O)NC(=O)[C@H](CCC(N)=O)NC(=O)[C@H](C)NC(=O)[C@H](CCCNC(=N)N)NC(=O)[C@H](CCCNC(=N)N)NC(=O)[C@H](CO)NC(=O)[C@H](CC(=O)O)NC(=O)[C@H](CC(C)C)NC(=O)[C@H](Cc1ccc(O)cc1)NC(=O)[C@H](CCC(N)=O)NC(=O)[C@@H](NC(=O)[C@@H](NC(=O)[C@H](CC(=O)O)NC(=O)[C@H](CC(N)=O)NC(=O)[C@@H](NC(=O)[C@H](Cc1ccc(O)cc1)NC(=O)[C@@H](NC(=O)CNC(=O)[C@H](CCC(N)=O)NC(=O)[C@H](CO)NC(=O)[C@@H](N)Cc1c[nH]cn1)[C@@H](C)O)[C@@H](C)O)C(C)C)[C@@H](C)O)C(=O)N[C@@H](CCC(=O)O)C(=O)N[C@@H](Cc1c[nH]c2ccccc12)C(=O)N[C@@H](CC(C)C)C(=O)N[C@@H](CCSC)C(=O)N[C@@H](CC(N)=O)C(=O)N[C@H](C(N)=O)C(C)O (some centres not stated) (H-HSQGTYTNDVTQYLDSRRAQDFIEWLMN[Thr(3ξ)]-NH2) | – | – |
| 0.14 | 29.3 | 1.3 | H-HSQGTYTNDVSKYLDSRRAQDFIEWLIKGK-NH2 | – | – |
| 0.16 | 25.6 | 2.7 | H-HSQGTYTNDVTEYLDSRRAQEFIEWLIKGK-NH2 | – | – |
| 0.56 | 7.3 | 1.9 | H-HSQGTYTNDVSKYLDSRRAQDFIEWLIKG-NH2 | – | – |
| 0.57 | 7.2 | 0.42 | H-HSQGTYTNDVSKYLDSRRAQQFIEWLMNTKRNRNNIA-NH2 | – | – |
| 0.041 | – | > 1000 | CC[C@H](C)[C@H](NC(=O)[C@H](CC(C)C)NC(=O)[C@H](Cc1c[nH]c2ccccc12)NC(=O)[C@H](CCC(=O)O)NC(=O)[C@@H](NC(=O)[C@H](Cc1ccccc1)NC(=O)[C@H](CCC(=O)O)NC(=O)[C@H](CCCCN)NC(=O)[C@H](C)NC(=O)[C@H](C)NC(=O)[C@H](CCC(=O)O)NC(=O)[C@H](CCC(=O)O)NC(=O)[C@H](CCC(=O)O)NC(=O)[C@H](CC(C)C)NC(=O)[C@H](Cc1ccc(O)cc1)NC(=O)[C@H](CCC(=O)O)NC(=O)[C@@H](NC(=O)[C@@H](NC(=O)[C@H](CC(=O)O)NC(=O)[C@H](CC(N)=O)NC(=O)[C@@H](NC(=O)[C@H](Cc1ccc(O)cc1)NC(=O)[C@@H](NC(=O)CNC(=O)[C@H](CCC(=O)O)NC(=O)C(C)(C)NC(=O)[C@@H](N)Cc1c[nH]cn1)[C@@H](C)O)[C@@H](C)O)C(C)C)[C@@H](C)O)[C@@H](C)CC)C(=O)N[C@@H](CCCCN)C(=O)NCC(=O)N[C@@H](CCCCN)C(N)=O (H-H[Aib]EGTYTNDVTEYLEEEAAKEFIEWLIKGK-NH2) | 100 | – |
| 0.12 | 34.2 | 2.6 | H-HSQGTYTNDVTEYLDSRRAQDFIEWLIKGK-NH2 | – | – |
| 0.68 | 6 | 0.41 | CC[C@H](C)[C@H](NC(=O)[C@H](Cc1ccccc1)NC(=O)[C@H](CC(=O)O)NC(=O)[C@H](CCC(N)=O)NC(=O)[C@H](C)NC(=O)[C@H](CCCNC(=N)N)NC(=O)[C@H](CCCNC(=N)N)NC(=O)[C@H](CO)NC(=O)[C@H](CC(=O)O)NC(=O)[C@H](CC(C)C)NC(=O)[C@H](Cc1ccc(O)cc1)NC(=O)[C@H](CCCCN)NC(=O)[C@H](CO)NC(=O)[C@@H](NC(=O)[C@H](CC(=O)O)NC(=O)[C@H](CC(N)=O)NC(=O)[C@@H](NC(=O)[C@H](Cc1ccc(O)cc1)NC(=O)[C@@H](NC(=O)CNC(=O)[C@H](CCC(N)=O)NC(=O)[C@H](CO)NC(=O)[C@@H](N)Cc1c[nH]cn1)[C@@H](C)O)[C@@H](C)O)C(C)C)C(=O)N[C@@H](CCC(=O)O)C(=O)N[C@@H](Cc1c[nH]c2ccccc12)C(=O)N[C@@H](CC(C)C)C(=O)N[C@@H](CCSC)C(=O)N[C@@H](CC(N)=O)C(=O)N[C@H](C(N)=O)C(C)O (some centres not stated) (H-HSQGTYTNDVSKYLDSRRAQDFIEWLMN[Thr(3ξ)]-NH2) | – | – |
| 0.62 | 6.6 | 0.93 | H-HSQGTYTNDVTQYLDSRRAQQFIEWLMNTKRNRNNIA-NH2 | – | – |

The next lines start with the molecule.

| Molecule | EC50 [1] [nM] | Activity [2] [%] | EC50 (Glucagon receptor) [nM] | Activity ([2]; filed as agonist) [%] | EC50 ([1]; hek293) [nM] |
| --- | --- | --- | --- | --- | --- |
| H-HSQGTYTNDVSKYLDSRRAQDFIEWLIKGKRNRNNIA-NH2 | 0.078 | – | 0.28 | 52.6 | – |
| H-HSQGTYTNDVTEYLDSRRAQDFIEWLIKGKPSSGAPPPS-NH2 | 0.45 | 9.1 | 1.3 | – | – |
| H-HSQGTYTNDVSKYLDSRRAQDFIEWLIKGKPSSGAPPPS-NH2 | 0.24 | 17.1 | 0.85 | – | – |
| H-HSQGTYTNDVTEYLDSRRAQDFIEWLKNGGPSSGAPPPS-NH2 | 0.22 | 18.6 | 39 | – | – |
| CCCCCCCCCCCCCCCC(=O)N[C@H](CCC(=O)NCCCC[C@H](NC(=O)[C@H](CO)NC(=O)[C@@H](NC(=O)[C@H](CC(=O)O)NC(=O)[C@H](CC(N)=O)NC(=O)[C@@H](NC(=O)[C@H](Cc1ccc(O)cc1)NC(=O)[C@@H](NC(=O)CNC(=O)[C@H](CCC(N)=O)NC(=O)[C@@H](CO)NC(=O)[C@@H](N)Cc1c[nH]cn1)[C@@H](C)O)[C@@H](C)O)C(C)C)C(=O)N[C@@H](Cc1ccc(O)cc1)C(=O)N[C@@H](CC(C)C)C(=O)N[C@@H](CC(=O)O)C(=O)N[C@@H](CO)C(=O)N[C@@H](CCCNC(=N)N)C(=O)N[C@@H](CCCNC(=N)N)C(=O)N[C@@H](C)C(=O)N[C@@H](CCC(N)=O)C(=O)N[C@@H](CC(=O)O)C(=O)N[C@@H](Cc1ccccc1)C(=O)N[C@H](C(=O)N[C@@H](CCC(=O)O)C(=O)N[C@@H](Cc1c[nH]c2ccccc12)C(=O)N[C@@H](CC(C)C)C(=O)N[C@@H](CCCCN)C(=O)N[C@@H](CC(N)=O)C(=O)NCC(=O)NCC(=O)N1CCC[C@H]1C(=O)N[C@@H](CO)C(=O)N[C@@H](CO)C(=O)NCC(=O)N[C@@H](C)C(=O)N1CCC[C@H]1C(=O)N1CCC[C@H]1C(=O)N1CCC[C@H]1C(=O)N[C@@H](CO)C(N)=O)[C@@H](C)CC)C(=O)O | – | – | – | 80.4 | 0.051 |
| H-HSQGTYTNDVSKYLDSRRAQDFIEWLKNGGPSSGAPPPS-NH2 | 0.053 | – | 0.15 | 77.4 | – |
| CCCCCCCCCCCCCCCC(=O)N[C@@H](CCC(=O)NCCCC[C@H](NC(=O)[C@H](CO)NC(=O)[C@@H]1CCCN1C(=O)[C@@H]1CCCN1C(=O)[C@@H]1CCCN1C(=O)[C@H](C)NC(=O)CNC(=O)[C@H](CO)NC(=O)[C@H](CO)NC(=O)[C@@H]1CCCN1C(=O)CNC(=O)CNC(=O)[C@H](CC(N)=O)NC(=O)[C@H](CCCCN)NC(=O)[C@H](CC(C)C)NC(=O)[C@H](Cc1c[nH]c2ccccc12)NC(=O)[C@H](CCC(=O)O)NC(=O)[C@@H](NC(=O)[C@H](Cc1ccccc1)NC(=O)[C@H](CC(=O)O)NC(=O)[C@H](CCC(N)=O)NC(=O)[C@H](C)NC(=O)[C@H](CCCNC(=N)N)NC(=O)[C@H](CCCNC(=N)N)NC(=O)[C@H](CO)NC(=O)[C@H](CC(=O)O)NC(=O)[C@H](CC(C)C)NC(=O)[C@H](Cc1ccc(O)cc1)NC(=O)[C@H](CCCCN)NC(=O)[C@H](CO)NC(=O)[C@@H](NC(=O)[C@H](CC(=O)O)NC(=O)[C@H](CC(N)=O)NC(=O)[C@@H](NC(=O)[C@H](Cc1ccc(O)cc1)NC(=O)[C@@H](NC(=O)CNC(=O)[C@H](CCC(N)=O)NC(=O)[C@@H](CO)NC(=O)[C@@H](N)Cc1c[nH]cn1)[C@@H](C)O)[C@@H](C)O)C(C)C)[C@@H](C)CC)C(N)=O)C(=O)O | 0.086 | – | 0.28 | 47.7 | – |

Reference: ChEMBL document CHEMBL5214890 (Eur J Med Chem, 2021)
